Where “and” joins values, the source holds several entries; their conditions need not be identical. Equal values may be shown once. Inconclusive results are not listed. *1 amine or outer side, *2 acyl side, *3 side chain or, on linkers, in order; H or OH if unused. Where a SMILES comes first, the peptide text is derived from it. Bridges are numbered along the chain shown (N, C = ends). Roman numbers before positions name the chains, in order. [ ]: non-standard residue; d: D form. Actinocin(9to1) = Cc1c2oc3c(C)ccc(C(=O)[*:1])c3nc-2c(C(=O)[*:2])c(N)c1=O; aThr = C[C@H](O)[C@H](N)C(=O)O; NMeV = CN[C@H](C(=O)O)C(C)C; Sar = CNCC(=O)O
Test system: MX-1 breast xenograft, intrarenal, nude mice, tumor weight
Experiment: NCI In Vivo Anticancer Drug Screen. Data for tumor model Human Mammary Carcinoma MX-1 Xenograft (intrarenal inoculation) in NU/NU BALB/C (nude) mice
Conditions: endpoint: mean tumor weight change, higher = larger tumour
How it was run: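 Efficacy in vivo: tumor measurement or survival of treated animals divided by that of vehicle-dosed controls.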

[1] = dose: 75.0 mg/kg/injection, schedule: Q04DX003 (sc), vehicle: saline with Tween-80
[2] = dose: 100.0 mg/kg/injection, schedule: Q04DX003 (ip), vehicle: saline with Tween-80
[3] = dose: 200.0 mg/kg/injection, schedule: Q04DX003 (ip), vehicle: saline with Tween-80
[4] = dose: 300.0 mg/kg/injection, schedule: Q04DX003 (sc), vehicle: saline
[5] = dose: 600.0 mg/kg/injection, schedule: Q04DX003 (sc), vehicle: saline
[6] = dose: 100.0 mg/kg/injection, schedule: Q04DX003 (ip), vehicle: Klucel (hydroxypropylcellulose) (HPC)
[7] = dose: 200.0 mg/kg/injection, schedule: Q04DX003 (ip), vehicle: Klucel (hydroxypropylcellulose) (HPC)

Question: Which results are given for `CCOC(=O)c1ccc(NN=NCCF)cc1`?
Answer: T/C (dose: 150.0 mg/kg/injection, schedule: Q04DX003 (ip), vehicle: distilled water + Tween-80 + alcohol): 99 % of control; T/C (dose: 300.0 mg/kg/injection, schedule: Q04DX003 (ip), vehicle: distilled water + Tween-80 + alcohol): 89 % of control; T/C (dose: 600.0 mg/kg/injection, schedule: Q04DX003 (ip), vehicle: distilled water + Tween-80 + alcohol): 84 % of control; T/C (dose: 1200.0 mg/kg/injection, schedule: Q04DX003 (ip), vehicle: distilled water + Tween-80 + alcohol): 49 % of control

Question: Which results are given for `CCc1nc(N)nc(N)c1-c1ccc(Cl)c([N+](=O)[O-])c1`?
Answer: T/C (dose: 18.75 mg/kg/injection, schedule: Q04DX003 (sc), vehicle: saline with Tween-80): 99 % of control; T/C (dose: 37.5 mg/kg/injection, schedule: Q04DX003 (sc), vehicle: saline with Tween-80): 71 % of control; T/C [1]: 82 % of control

Question: With `CS(=O)(=O)CS(=O)(=O)OCCCl` as the compound, how does the T/C (dose: 21.6 mg/kg/injection, schedule: Q04DX003 (ip), vehicle: other) read?
Answer: 61 % of control

Question: What about the T/C (dose: 36.0 mg/kg/injection, schedule: Q04DX003 (ip), vehicle: other) of the same compound?
Answer: 28 % of control

Question: And the T/C (dose: 37.5 mg/kg/injection, schedule: Q04DX003 (sc), vehicle: suspension in saline)?
Answer: 106 % of control

Question: And the T/C (dose: 60.0 mg/kg/injection, schedule: Q04DX003 (ip), vehicle: other)?
Answer: 25 % of control

Question: What about the T/C (dose: 75.0 mg/kg/injection, schedule: Q04DX003 (sc), vehicle: suspension in saline) of the same compound?
Answer: 106 % of control

Question: And the T/C (dose: 99.6 mg/kg/injection, schedule: Q04DX003 (ip), vehicle: dextrose)?
Answer: 100 % of control

Question: And the T/C (dose: 99.6 mg/kg/injection, schedule: Q04DX003 (ip), vehicle: other)?
Answer: 19 % of control

Question: And the T/C (dose: 100.0 mg/kg/injection, schedule: Q04DX003 (ip), vehicle: other)?
Answer: 43 % of control

Question: What about the T/C (dose: 150.0 mg/kg/injection, schedule: Q04DX003 (sc), vehicle: suspension in saline) of the same compound?
Answer: 54 % of control

Question: What about the T/C (dose: 166.0 mg/kg/injection, schedule: Q04DX003 (ip), vehicle: dextrose) of the same compound?
Answer: 37 % of control

Question: And the T/C (dose: 166.0 mg/kg/injection, schedule: Q04DX003 (ip), vehicle: other)?
Answer: 13 % of control

Question: And the T/C (dose: 166.7 mg/kg/injection, schedule: Q04DX003 (ip), vehicle: other)?
Answer: 20 % of control

Question: And the T/C (dose: 276.67 mg/kg/injection, schedule: Q04DX003 (ip), vehicle: dextrose)?
Answer: 19 % of control

Question: And the T/C (dose: 276.67 mg/kg/injection, schedule: Q04DX003 (ip), vehicle: other)?
Answer: 10 % of control

Question: How did the T/C [2] turn out when `CC(=O)/C(=C\c1ccc(/C=C(\C(C)=O)C(=O)CCN(C)C)cc1)C(=O)CCN(C)C` was run?
Answer: 122 % of control

Question: What about the T/C [3] of the same compound?
Answer: 90 % of control

Question: For `Nc1ccn([C@@H](C=O)O[C@@H](C=O)CO)c(=O)n1`, which T/C (dose: 50.0 mg/kg/injection, schedule: Q04DX003 (sc), vehicle: saline) is on record?
Answer: 70 % of control

Question: What about the T/C (dose: 100.0 mg/kg/injection, schedule: Q04DX003 (sc), vehicle: saline) of the same compound?
Answer: 14 % of control

Question: And the T/C (dose: 200.0 mg/kg/injection, schedule: Q04DX003 (sc), vehicle: saline)?
Answer: -85 % of control

Question: Which results are given for `CCCCNc1ccc2nnc(C)n2n1`?
Answer: T/C (dose: 150.0 mg/kg/injection, schedule: Q04DX003 (ip), vehicle: DMSO): 94 % of control and 108 % of control; T/C (dose: 300.0 mg/kg/injection, schedule: Q04DX003 (ip), vehicle: DMSO): 78 % of control and 88 % of control

Question: With `Cc1c2oc3c(C)ccc(C(=O)N[C@@H]4C(=O)N[C@H](C(C)C)C(=O)N5CCC[C@H]5C(=O)N(C)CC(=O)N(C)[C@@H](C(C)C)C(=O)O[C@H]4C)c3nc-2c(C(=O)N[C@@H]2C(=O)N[C@H](C(C)C)C(=O)N3CCC[C@H]3C(=O)N(C)CC(=O)N(C)[C@@H](C(C)C)C(=O)O[C@H]2C)c(N)c1=O` (I: [aThr][dV]P[Sar][NMeV] / II: [aThr][dV]P[Sar][NMeV]; ester I:1-I:C, II:1-II:C; linker I:N-II:N via Actinocin(9to1)) as the compound, how does the T/C (dose: 25.0 micrograms/kg/injection, schedule: Q01DX010 (sc), vehicle: saline) read?
Answer: 100 % of control

Question: And the T/C (dose: 50.0 micrograms/kg/injection, schedule: Q01DX010 (sc), vehicle: saline)?
Answer: 49 % of control

Question: And the T/C (dose: 100.0 micrograms/kg/injection, schedule: Q01DX010 (sc), vehicle: saline)?
Answer: 12 % of control

Question: What about the T/C (dose: 200.0 micrograms/kg/injection, schedule: Q01DX010 (sc), vehicle: saline) of the same compound?
Answer: 1 % of control

Question: Which T/C [2] does the source give for `Clc1cccc(Cl)c1C(Nc1nncs1)Nc1nncs1` here?
Answer: 94 % of control

Question: And the T/C [3]?
Answer: 73 % of control

Question: And the T/C (dose: 400.0 mg/kg/injection, schedule: Q04DX003 (ip), vehicle: saline with Tween-80)?
Answer: 44 % of control

Question: `COc1cc2c(ccc3c4cc(OC)c(OC)cc4c[n+](C)c23)cc1O` was tested. Which T/C (dose: 150.0 mg/kg/injection, schedule: Q04DX003 (sc), vehicle: saline) did it give?
Answer: 83 % of control

Question: And the T/C [4]?
Answer: 74 % of control

Question: What about the T/C [5] of the same compound?
Answer: 79 % of control

Question: And the T/C (dose: 1200.0 mg/kg/injection, schedule: Q04DX003 (sc), vehicle: saline)?
Answer: 68 % of control

Question: What does the source list for `CN(C)C(=O)Nc1ccc(Cl)cc1`?
Answer: T/C (dose: 150.0 mg/kg/injection, schedule: Q04DX003 (ip), vehicle: suspension in saline): 71 % of control; T/C (dose: 300.0 mg/kg/injection, schedule: Q04DX003 (ip), vehicle: suspension in saline): 98 % of control; T/C (dose: 600.0 mg/kg/injection, schedule: Q04DX003 (ip), vehicle: suspension in saline): 91 % of control

Question: Which T/C [6] does the source give for `CN1C2C=CC(=O)C1C1C(=O)N(c3ccccc3)C(=O)C12` (centres undefined) here?
Answer: 105 % of control

Question: And the T/C [7]?
Answer: 77 % of control

Question: What does the source list for `CN=NN(C)C(=O)NC`?
Answer: T/C (dose: 37.5 mg/kg/injection, schedule: Q04DX003 (ip), vehicle: saline): 112 % of control; T/C (dose: 75.0 mg/kg/injection, schedule: Q04DX003 (ip), vehicle: saline): 79 % of control; T/C (dose: 108.0 mg/kg/injection, schedule: Q04DX003 (ip), vehicle: saline): 2 % of control; T/C (dose: 150.0 mg/kg/injection, schedule: Q04DX003 (ip), vehicle: saline): 15 % of control; T/C (dose: 180.0 mg/kg/injection, schedule: Q04DX003 (ip), vehicle: saline with Tween-80): 108 % of control; T/C (dose: 300.0 mg/kg/injection, schedule: Q04DX003 (ip), vehicle: saline): -13 % of control; T/C (dose: 500.0 mg/kg/injection, schedule: Q04DX003 (ip), vehicle: saline with Tween-80): 124 % of control

Question: With `COc1cc(C(C)(C)C)cc(OC)c1C(O)(c1c(OC)cc(C(C)(C)C)cc1OC)c1c(OC)cc(C(C)(C)C)cc1OC` as the compound, how does the T/C (dose: 200.0 mg/kg/injection, schedule: Q04DX003 (sc), vehicle: saline with Tween-80) read?
Answer: 93 % of control

Question: What about the T/C (dose: 400.0 mg/kg/injection, schedule: Q04DX003 (sc), vehicle: saline with Tween-80) of the same compound?
Answer: 88 % of control

Question: What about the T/C (dose: 800.0 mg/kg/injection, schedule: Q04DX003 (sc), vehicle: saline with Tween-80) of the same compound?
Answer: 96 % of control

Question: What about the T/C (dose: 1600.0 mg/kg/injection, schedule: Q04DX003 (sc), vehicle: saline with Tween-80) of the same compound?
Answer: 100 % of control

Question: Which T/C [6] does the source give for `CN(C)c1ccc2c(Nc3ccc(NS(C)(=O)=O)cc3)c3ccc(N(C)C)cc3nc2c1` here?
Answer: 115 % of control

Question: And the T/C [7]?
Answer: 39 % of control

Question: For `CNC(=O)ON(C(C)=O)C(=O)NC`, which T/C (dose: 12.5 mg/kg/injection, schedule: Q01DX010 (ip), vehicle: saline) is on record?
Answer: 218 % of control

Question: And the T/C (dose: 25.0 mg/kg/injection, schedule: Q01DX010 (ip), vehicle: saline)?
Answer: 106 % of control

Question: And the T/C (dose: 25.0 mg/kg/injection, schedule: Q01DX010 (sc), vehicle: saline)?
Answer: 104 % of control

Question: What about the T/C (dose: 50.0 mg/kg/injection, schedule: Q01DX010 (ip), vehicle: saline) of the same compound?
Answer: 72 % of control

Question: And the T/C (dose: 50.0 mg/kg/injection, schedule: Q01DX010 (sc), vehicle: saline)?
Answer: 26 % of control

Question: What about the T/C (dose: 100.0 mg/kg/injection, schedule: Q01DX010 (ip), vehicle: saline) of the same compound?
Answer: 5 % of control

Question: And the T/C (dose: 100.0 mg/kg/injection, schedule: Q01DX010 (sc), vehicle: saline)?
Answer: -42 % of control

Question: And the T/C (dose: 200.0 mg/kg/injection, schedule: Q01DX010 (sc), vehicle: saline)?
Answer: -89 % of control

Question: How did the T/C [1] turn out when `CCN(CC)Cc1cc2[nH]c3c4ccc(Cl)cc4ncc3c2cc1OC` was run?
Answer: 92 % of control

Question: And the T/C (dose: 300.0 mg/kg/injection, schedule: Q04DX003 (sc), vehicle: saline with Tween-80)?
Answer: 73 % of control

Question: Which T/C [7] does the source give for `CNC(=S)SC1=NS(=O)(=O)c2ccccc2N1` here?
Answer: 179 % of control

Question: And the T/C (dose: 400.0 mg/kg/injection, schedule: Q04DX003 (ip), vehicle: Klucel (hydroxypropylcellulose) (HPC))?
Answer: 165 % of control

Question: Which T/C [4] does the source give for `O=C1CCC(=O)N1CO` here?
Answer: 73 % of control

Question: And the T/C [5]?
Answer: 86 % of control

Question: `CCN(CC)CCn1[nH]c2c3ccc(=O)cc3sc3c(NCCN)ccc1c32` was tested. Which T/C (dose: 3.12 mg/kg/injection, schedule: Q04DX003 (ip), vehicle: water) did it give?
Answer: 26 % of control and 40 % of control

Question: And the T/C (dose: 6.25 mg/kg/injection, schedule: Q04DX003 (ip), vehicle: water)?
Answer: 35 % of control and 38 % of control and 42 % of control

Question: And the T/C (dose: 25.0 mg/kg/injection, schedule: Q04DX003 (ip), vehicle: water)?
Answer: 50 % of control

— PubChem BioAssay AID298 (DTP/NCI, 2004)
